“And” between values parts separate entries of the source, which are not always exact repeats. Equal values may be shown once. “Also recorded” adds a separate entry of the source.
How the values were obtained:
[1] = test system: leukocytes (PMN) in aqueous humor; experiment: Leukocytes (PMN) measurement in aqueous humor, rabbit paracentesis model; assay type: in vivo; settings: aqueous humor at the second paracentesis; for PMN numbers, Mean (number/μl): group mean; for PMN (number/μl): raw data per sample
Protocol: Each rabbit was placed in a restraint device and tagged with the alphanumeric code. The formulations were instilled (50 μl) into the conjunctival sac of both eyes 180, 120, 90 and 30 min before the first paracentesis; then 15, 30, 90 min after the first paracentesis. To perform the first paracentesis the animals were anaesthetized by intraveneous injection of 5 mg/kg Zoletil® (Virbac; 2.5 mg/kg tiletamine HCl and 2.5 mg/kg zolazepam HCl) and one drop of local anesthetic (Novesina®, Novartis) was administered to the eye. Anterior chamber paracentesis was performed with a 26 G needle attached to a tuberculin syringe; the needle was introduced into the anterior chamber through the cornea, taking care not to damage the tissues. Two hours after the first paracentesis, the animals were sacrificed with 0.4 ml Tanax® (Intervet International B.V.) and the second paracentesis was performed. About 100 μl of aqueous humor were removed at the second paracentesis. Aqueous humor was immediately split in four aliquots and stored at −80° C. until analysis. Then both eyes were enucleated and the iris-ciliary body was carefully excised, placed in polypropylene tubes, and stored at −80° C. until analysis.
For the determination of the number of leukocytes we used a haemocytometer (Improved Neubauer Chamber; Brigth-line, Hausser Scientific) and a Polyvar 2 microscope (Reichert-Jung).

[2] = test system: rabbit eye (anterior chamber paracentesis); experiment: Rabbit paracentesis model, overall anti-inflammatory activity; assay type: in vivo; settings: 0.1%, 0.5% and 1% topical formulations; preliminary conclusions; listed as BOL-303242-X
From the text: Inflammatory processes are multidimensional in origin, and are characterized by complex cellular and molecular events involving numerous components all of which have not been identified. Prostaglandins are among these mediators and play an important role in certain forms of ocular inflammation. Paracentesis of the anterior chamber in the rabbit eye induces inflammatory reaction due to the disruption of the blood-aqueous barrier (“BAB”), which is mediated, at least in part, by prostaglandin E2 [References 1-3 below]. Intraocular or topical administration of PGE2 disrupts the BAB. [Reference 4, below] The treatment schedule adopted in this study was similar to the clinical NSAIDs (Ocufen) treatment schedule used by surgeons for patients before cataract surgery.
Each rabbit was placed in a restraint device and tagged with the alphanumeric code. The formulations were instilled (50 μl) into the conjunctival sac of both eyes 180, 120, 90 and 30 min before the first paracentesis; then 15, 30, 90 min after the first paracentesis. To perform the first paracentesis the animals were anaesthetized by intraveneous injection of 5 mg/kg Zoletil® (Virbac; 2.5 mg/kg tiletamine HCl and 2.5 mg/kg zolazepam HCl) and one drop of local anesthetic (Novesina®, Novartis) was administered to the eye. […]

[3] = Side effects of corticosteroids (very preliminary data, not shown)

C[C@@H]1C[C@H]2[C@@H]3CCC4=CC(=O)C=C[C@]4(C)[C@@]3(F)[C@@H](O)C[C@]2(C)[C@@]1(O)C(=O)CO [Dex, dexamethasone]
PMN numbers, Mean (number/μl) ([1]; 0.1% topical formulation): 30.000 number/μl

CCOC(=O)O[C@]1(C(=O)OCCl)CC[C@H]2[C@@H]3CCC4=CC(=O)C=C[C@]4(C)[C@H]3[C@@H](O)C[C@@]21C [LE, loteprednol etabonate]
PMN (number/μl) ([1]; 0.5% topical formulation): 40 number/μl and 20 number/μl and 30 number/μl

CC(C(=O)O)c1ccc(-c2ccccc2)c(F)c1 (stereo not drawn) [F, flurbiprofen]
PMN numbers, Mean (number/μl) ([1]; 0.03% topical formulation): 30.000 number/μl

Cc1ccc2c(NCC(O)(CC(C)(C)c3cc(F)cc4c3OCC4)C(F)(F)F)cccc2n1 (stereo not drawn) [BOL]
Anti-inflammatory activity in the rabbit paracentesis model (conclusion) [2]: active; also recorded: as effective an anti-inflammatory drug as some of the commonly accepted prior-art steroids or NSAID
PMN (number/μl) ([1]; 1% topical formulation): 30 number/μl and 20 number/μl and 40 number/μl
Side effects of corticosteroids [3]: does not have some of the side effects of corticosteroids

Source: patent US20080031884A1, “COMPOSITIONS AND METHODS FOR TREATING, REDUCING, AMELIORATING, OR ALLEVIATING POSTERIOR-SEGMENT OPHTHALMIC DISEASES” (priority 2006, published 2008)
